“Also recorded” adds a separate entry of the source. Each block holds one compound with its values, some of them ahead of it.
What was measured:
FAK = molecular target: T1, FAK (Homo sapiens, UniProt Q05397); test: FAK activation (FAK-Tyr-397 phosphorylation) by western blotting in Caco-2 cells in suspension; assay type: cell-based; settings: for FAK activation (FAK-Tyr-397 phosphorylation): Caco-2 cells; for FAK phosphorylation: 100 pm-1 nM; for basal FAK-Tyr-397 phosphorylation: ambient pressure, varying concentrations
T1 construct: endogenous in cells; host or cells: Caco-2
Excerpt: FAK-Y397 western blotting: For studies of FAK activation, cells were maintained at ambient or increased pressure in bacteriologic plastic dishes pacificated with heat-inactivated bovine serum albumin to prevent adhesion and avoid adhesion-associated background FAK activation. Cells were lysed in lysis buffer, resolved by 10% SDS-PAGE, transferred to nitrocellulose and blotted with antibody to Tyr-397-phosphorylated FAK (Rabbit monoclonal antibody, ab81298, Abcam, USA) and anti-rabbit 680 (LI-COR, USA), before quantitation using Kodak Scientific Imaging Systems 1D, V.3.5.4 within the linear range of exposure (Oncotarget 2017). Total FAK (Primary antibody: Anti-FAK, clone 4.47 Merck, Germany and secondary antibody: anti-mouse 800, LI-COR, USA) served as a protein loading control.

Caco-2 monolayers = test: Closure of circular wounds in Caco-2 monolayers on collagen I; assay type: cell-based, human; settings: for monolayer wound closure: Caco-2 on collagen I; for Caco-2 monolayer wound closure: concentration not given; for wound closure rate: 100 μM, Caco-2 on Collagen-I; for stimulation of wound closure under FAK blockade: with FAK inhibitor PF-573328 (10 uM)
SHP2 = molecular target: T2, SHP2 (Homo sapiens, UniProt Q06124); test: SHP2 dephosphorylation of a synthetic substrate; assay type: biochemical; settings: for SHP2 dephosphorylation of a synthetic substrate: 100 nM, vs. positive control reaction
T2 sequence (Q06124 1-593): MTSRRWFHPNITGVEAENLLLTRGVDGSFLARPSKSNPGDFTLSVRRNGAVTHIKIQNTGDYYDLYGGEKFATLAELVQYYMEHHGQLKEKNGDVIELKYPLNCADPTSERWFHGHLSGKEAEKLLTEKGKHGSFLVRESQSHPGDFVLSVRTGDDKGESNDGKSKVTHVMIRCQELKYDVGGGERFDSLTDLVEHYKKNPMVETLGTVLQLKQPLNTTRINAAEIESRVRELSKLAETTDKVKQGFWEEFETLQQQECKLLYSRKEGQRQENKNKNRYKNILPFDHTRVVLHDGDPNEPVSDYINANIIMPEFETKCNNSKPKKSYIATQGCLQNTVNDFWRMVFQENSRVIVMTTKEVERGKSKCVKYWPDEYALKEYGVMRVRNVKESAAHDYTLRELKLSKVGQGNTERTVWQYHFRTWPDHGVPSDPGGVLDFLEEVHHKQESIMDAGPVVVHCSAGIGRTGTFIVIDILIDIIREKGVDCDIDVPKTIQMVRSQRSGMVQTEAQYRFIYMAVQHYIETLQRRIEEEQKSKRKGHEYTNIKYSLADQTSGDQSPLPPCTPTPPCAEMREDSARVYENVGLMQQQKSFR

Caco-2 cells = test: Caco-2 proliferation; assay type: cell-based, human
PTP1B-FAK interaction = molecular target: T3, PTP1B-FAK interaction (Homo sapiens, UniProt Q05397); test: PTP1B-FAK interaction by FAK immunoprecipitation and Western for PTP1B; assay type: cell-based; settings: 10 nM; co-precipitation; listed as D3
T3 construct: endogenous in cells; host or cells: Caco-2 (inferred)

Pyk2 (also called FAK2) = molecular target: T4, Pyk2 (also called FAK2) (Homo sapiens, UniProt Q14289); test: Pyk2 activation (selectivity); assay type: cell-based; settings: up to 1000 nm (100× therapeutic threshold); listed as D3
T4 construct: endogenous in cells

Src = molecular target: T5, Src (Homo sapiens, UniProt P12931); test: Src activation (selectivity); assay type: cell-based; settings: up to 1000 nm (100× therapeutic threshold); listed as D3
T5 construct: endogenous in cells

ileal ulcer = test: Serosal acetic acid ileal ulcer healing in mice; assay type: in vivo; settings: vs DMSO vehicle, listed as D3
Protocol: An in vivo study was conducted utilizing C57BL6 Male/Female>8-week-old mice. During laparotomy under anesthesia, a filter paper soaked with 75% Acetic Acid was applied to ileal serosa for 15 seconds, a technique that produces reproducible mucosal ulcers at day 4 without opening the bowel. Flanigan T L et al., Am J Surg. 2008 November; 196(5): 683-689. doi:10.1016/j.amjsurg.2008.07.016.
At 1 day after ulcerogenesis, an intraperitoneal (IP) administration of Q6H-DMSO (2.4 ul+97.6 ul saline) was performed in a control sample, along with an IP injection of Q6H—Compound 3 (10 ug/ul) (2.4 ul+97.6 ul saline) in a test sample.
At 4 days after ulcerogenesis (day 3 after starting administration), the ulcer area was measured in each. The observed ulcer area and corresponding wound closure rate in vivo further evidences the effect of Compound 3.
(§1) (A) The effects of dosing of compound D3 on murine intestinal ulcer healing was investigated. Brief serosal application of a filter paper disk soaked in dilute acetic acid was used to create well demarcated reproducible mucosal small bowel ulcerations without opening the bowel (47-49). In one study such murine ulcers were created, allowed 24 hours for recovery and ulcer formation, and then compound D3 was administered at 900 ug/kg Q6H for three days before sacrifice. […] Males and females responded similarly.

small bowel ulcer = test: Indomethacin small bowel ulcer healing in mice; assay type: in vivo; settings: 4 days after indomethacin 15 mg/kg subQ, listed as D3
Protocol: (§2) (B) Indomethacin ulcer healing. 15 mg/kg of indomethacin was administered subcutaneously, and treatment started with vehicle of drug 1 day after injury. At 4 days, ulcer area was calculated after sacrifice by morphometric analysis of photographs of the entire small bowel.

[1] = Toxicity assessment in acetic acid ulcer mice (weight, serum chemistry, histology); assay type: in vivo; settings: acetic acid ulcer model
Protocol: as §1

[2] = Body weight in indomethacin ulcer mice; assay type: in vivo; settings: indomethacin model, trend not statistically significant
Protocol: as §2

T1 sequence (Q05397 whole entry): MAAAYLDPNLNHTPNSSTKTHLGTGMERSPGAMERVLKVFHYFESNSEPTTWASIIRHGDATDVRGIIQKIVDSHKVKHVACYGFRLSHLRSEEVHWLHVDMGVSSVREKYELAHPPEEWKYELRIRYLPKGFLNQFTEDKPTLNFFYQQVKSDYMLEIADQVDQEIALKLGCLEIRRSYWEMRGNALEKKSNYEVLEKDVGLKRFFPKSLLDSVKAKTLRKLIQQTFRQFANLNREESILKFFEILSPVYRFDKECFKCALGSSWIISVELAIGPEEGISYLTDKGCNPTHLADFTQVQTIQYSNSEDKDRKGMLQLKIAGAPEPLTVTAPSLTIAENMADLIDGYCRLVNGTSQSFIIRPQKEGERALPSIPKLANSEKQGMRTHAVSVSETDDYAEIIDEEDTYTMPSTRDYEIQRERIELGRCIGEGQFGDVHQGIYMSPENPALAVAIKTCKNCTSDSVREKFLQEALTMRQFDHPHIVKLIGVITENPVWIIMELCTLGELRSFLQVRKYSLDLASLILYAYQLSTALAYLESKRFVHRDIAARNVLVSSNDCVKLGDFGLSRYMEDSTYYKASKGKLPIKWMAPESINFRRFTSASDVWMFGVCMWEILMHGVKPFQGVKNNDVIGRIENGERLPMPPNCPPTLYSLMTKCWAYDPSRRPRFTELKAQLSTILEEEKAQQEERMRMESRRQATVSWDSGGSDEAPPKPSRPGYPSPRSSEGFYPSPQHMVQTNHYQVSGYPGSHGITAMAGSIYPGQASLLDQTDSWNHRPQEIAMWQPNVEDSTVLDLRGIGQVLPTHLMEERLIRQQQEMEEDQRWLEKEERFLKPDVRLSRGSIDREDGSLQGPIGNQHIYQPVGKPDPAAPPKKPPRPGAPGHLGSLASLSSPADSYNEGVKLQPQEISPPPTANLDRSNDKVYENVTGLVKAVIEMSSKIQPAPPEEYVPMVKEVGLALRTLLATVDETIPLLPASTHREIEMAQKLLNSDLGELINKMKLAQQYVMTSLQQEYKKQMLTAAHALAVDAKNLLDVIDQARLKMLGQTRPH
T3 sequence (Q05397 whole entry): as above
T5 sequence (P12931 whole entry): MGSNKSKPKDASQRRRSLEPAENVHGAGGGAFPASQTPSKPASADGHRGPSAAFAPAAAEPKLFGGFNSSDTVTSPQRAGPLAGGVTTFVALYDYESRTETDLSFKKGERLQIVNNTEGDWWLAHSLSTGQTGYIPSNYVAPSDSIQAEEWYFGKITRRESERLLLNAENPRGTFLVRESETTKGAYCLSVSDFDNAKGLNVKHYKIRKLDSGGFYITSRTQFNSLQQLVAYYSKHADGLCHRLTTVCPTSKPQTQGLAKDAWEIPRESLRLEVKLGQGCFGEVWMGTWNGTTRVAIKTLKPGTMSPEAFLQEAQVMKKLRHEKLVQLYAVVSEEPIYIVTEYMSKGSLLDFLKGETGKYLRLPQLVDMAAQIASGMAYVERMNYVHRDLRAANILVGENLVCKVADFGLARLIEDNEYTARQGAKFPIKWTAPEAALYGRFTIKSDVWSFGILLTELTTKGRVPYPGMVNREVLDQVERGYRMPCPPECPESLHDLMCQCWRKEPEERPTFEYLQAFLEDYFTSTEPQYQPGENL
T4 sequence (Q14289 whole entry): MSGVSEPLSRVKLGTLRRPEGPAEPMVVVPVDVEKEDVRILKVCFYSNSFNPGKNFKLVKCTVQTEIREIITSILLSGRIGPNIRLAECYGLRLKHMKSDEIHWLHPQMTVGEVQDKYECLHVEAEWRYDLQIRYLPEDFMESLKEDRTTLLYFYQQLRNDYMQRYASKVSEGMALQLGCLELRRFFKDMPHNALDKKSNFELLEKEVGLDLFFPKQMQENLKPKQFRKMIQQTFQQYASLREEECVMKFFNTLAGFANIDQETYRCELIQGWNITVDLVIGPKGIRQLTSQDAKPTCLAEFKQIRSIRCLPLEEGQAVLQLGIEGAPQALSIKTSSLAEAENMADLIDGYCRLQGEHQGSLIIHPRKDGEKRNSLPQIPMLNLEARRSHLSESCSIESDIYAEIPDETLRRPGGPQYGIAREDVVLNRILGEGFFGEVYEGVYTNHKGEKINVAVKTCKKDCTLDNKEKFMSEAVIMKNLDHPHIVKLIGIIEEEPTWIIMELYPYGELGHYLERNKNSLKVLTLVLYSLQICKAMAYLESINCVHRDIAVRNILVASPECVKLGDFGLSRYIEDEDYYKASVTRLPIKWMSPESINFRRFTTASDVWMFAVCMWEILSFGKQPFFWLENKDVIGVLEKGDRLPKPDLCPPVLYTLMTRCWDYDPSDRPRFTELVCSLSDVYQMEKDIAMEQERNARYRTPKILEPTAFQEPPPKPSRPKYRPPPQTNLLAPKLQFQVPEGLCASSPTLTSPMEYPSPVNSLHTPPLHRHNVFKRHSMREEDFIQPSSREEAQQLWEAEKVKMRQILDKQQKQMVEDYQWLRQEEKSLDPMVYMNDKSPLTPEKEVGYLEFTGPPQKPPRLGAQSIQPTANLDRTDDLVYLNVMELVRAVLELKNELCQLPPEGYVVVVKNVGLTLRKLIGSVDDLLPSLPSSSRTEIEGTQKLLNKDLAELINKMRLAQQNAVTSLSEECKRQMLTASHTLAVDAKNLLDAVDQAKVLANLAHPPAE

FAK phosphorylation (FAK): activate FAK phosphorylation | Caco-2 monolayer wound closure (Caco-2 monolayers): promote Caco-2 monolayer wound closure
Structure (SMILES): O=C(Nc1cc(C(F)(F)F)ccc1N1CCOCC1)N1CCCC1c1ccncc1 (stereo not drawn) [Compound M3]
FAK activation (FAK-Tyr-397 phosphorylation) (FAK; 10 nM): proved active; also recorded: activate FAK Y-397 phosphorylation

FAK phosphorylation (FAK): activate FAK phosphorylation | Caco-2 monolayer wound closure (Caco-2 monolayers): promote Caco-2 monolayer wound closure
Structure (SMILES): COc1ccc(C(CNC(=O)Nc2cc(C(F)(F)F)ccc2N2CCOCC2)N(C)C)cc1 (stereo not drawn) [Compound M6]
FAK activation (FAK-Tyr-397 phosphorylation) (FAK; 10 nM): proved active; also recorded: activate FAK Y-397 phosphorylation

basal FAK autophosphorylation (FAK): inhibits basal FAK autophosphorylation
Structure (SMILES): CS(=O)(=O)c1cccc(CNc2nc(Nc3ccc4c(c3)CCC(=O)N4)ncc2C(F)(F)F)c1 [PF-573228, reference compound]
basal rates of wound healing in vitro (Caco-2 monolayers): reduces basal rates of wound healing in vitro

FAK phosphorylation (FAK): activate FAK phosphorylation | Caco-2 monolayer wound closure (Caco-2 monolayers): promote Caco-2 monolayer wound closure
Structure (SMILES): O=C(Nc1cc(C(F)(F)F)ccc1N1CCOCC1)N1CCCC1C1CCCCC1 (stereo not drawn) [Compound M11]
FAK activation (FAK-Tyr-397 phosphorylation) (FAK; 10 nM): proved active; also recorded: activate FAK Y-397 phosphorylation

Second part, the compound before the results:

Structure (SMILES): O=C(Nc1cc(C(F)(F)F)ccc1N1CCOCC1)N1CCCC1c1ccccc1 (stereo not drawn) [Compound M12]
FAK activation (FAK-Tyr-397 phosphorylation) (FAK; 10 nM): proved active; also recorded: activate FAK Y-397 phosphorylation | monolayer wound closure (Caco-2 monolayers; 10 nM): stimulates monolayer wound closure

Structure (SMILES): COc1ccc(C2CCCN2C(=O)CC(NC(N)=O)c2ccccc2Cl)cc1OC (stereo not drawn) [Compound 4, 1-(2-chlorophenyl)-3-[2-(3,4-dimethoxyphenyl)pyrrolidin-1-yl]-3-oxopropylurea]
FAK activation (FAK; 1 nM): no change was observed | FAK activation (FAK-Tyr-397 phosphorylation) (FAK; 10 nM): can activate FAK | FAK activation (FAK-Tyr-397 phosphorylation) (FAK; 10 nM, listed as D4): activate FAK | basal FAK-Tyr-397 phosphorylation (FAK): increase basal FAK-Tyr-397 phosphorylation | FAK activation (FAK; concentration not given): especially potent | monolayer wound closure (Caco-2 monolayers; 10 nM): Increased wound closure rates; also recorded: can promote Caco-2 monolayer wound healing | monolayer wound closure (Caco-2 monolayers; 10 nM, listed as D4): accelerate the closure of circular wounds | SHP2 dephosphorylation of a synthetic substrate (SHP2): neither D3 nor D4 (100 nM) blocks SHP2 dephosphorylation

Structure (SMILES): Cc1ccccc1[C@@H]1CCCN1C(=O)C[C@H](NC(N)=O)c1cccs1 [Compound 2, [(1S)-3-[(2S)-2-(2-methylphenyl)pyrrolidin-1-yl]-3-oxo-1-thiophen-2-ylpropyl]urea]
FAK activation (FAK; 1 nM): demonstrated FAK activation | FAK activation (FAK; 10 and 100 nM): modest FAK activation | basal FAK-Tyr-397 phosphorylation (FAK): increase basal FAK-Tyr-397 phosphorylation | FAK activation (FAK; concentration not given): activated FAK | wound closure rate (Caco-2 monolayers): Increased wound closure rates

Structure (SMILES): COc1ccc(C2CCCN2C(=O)Nc2cc(C(F)(F)F)ccc2N2CCOCC2)cc1 (stereo not drawn) [Compound 3, 2-(4-methoxyphenyl)-N-[2-(morpholin-4-yl)-5-(trifluoromethyl)phenyl]pyrrolidine-1-carboxamide]
FAK activation (FAK; 10 pM to 1 nM): activation | FAK activation (FAK; 1 nM): demonstrated FAK activation | FAK activation (FAK-Tyr-397 phosphorylation) (FAK; 10 nM, listed as D3): activating FAK; also recorded: activate FAK | FAK-Y-397 phosphorylation under PTP PEST inhibition (FAK; 10 nM, PTP LYP inhibitor 540217 (50 uM), listed as D3): does not prevent D3 induction of FAK-Y-397; also recorded: stimulates Caco-2 FAK-Y-397 phosphorylation independently of PTP PEST inhibition | FAK activation in presence of genistein (FAK; 100 ug/ml genistein, human Caco-2 cells, listed as D3): does not block D3 induction of FAK phosphorylation; also recorded: does not block D3 activation of FAK | FAK activation, dose dependence (FAK; 10-1000 nM): dose dependently activates FAK | specificity vs. Pyk2 (FAK; FAK activation at 10 nM vs. Pyk2): at least 100 × | basal FAK-Tyr-397 phosphorylation (FAK): increase basal FAK-Tyr-397 phosphorylation | FAK activation (FAK; concentration not given): especially potent | FAK autophosphorylation in presence of FAK inhibitor PF573228 (FAK; with PF573228): does not prevent Compound 3 from increasing FAK autophosphorylation | wound closure when proliferation is blocked (Caco-2 monolayers; 10 nM, 4 mM OH-urea, listed as D3): stimulates wound closure even when proliferation is blocked; also recorded: accelerates closure of circular wounds | monolayer wound closure (Caco-2 monolayers; 10 nM): Increased wound closure rates | monolayer wound closure (Caco-2 monolayers; 10 nM, listed as D3): accelerate the closure of circular wounds | wound closure rate (Caco-2 monolayers): Increased wound closure rates | stimulation of wound closure under FAK blockade (Caco-2 monolayers): prevents the stimulation of wound healing by Compound 3 | stimulation of wound closure under FAK blockade (Caco-2 monolayers; listed as D3): prevented D3 stimulation of monolayer wound closure; also recorded: prevents D3 stimulation of wound closure | Caco-2 cell proliferation (Caco-2 cells): Neither Compound 1 nor Compound 3 stimulated Caco-2 cell proliferation | Caco-2 proliferation (cell number) (Caco-2 cells; 48 hours, listed as D3): cell number did not increase; also recorded: does not stimulate Caco-2 proliferation | SHP2 dephosphorylation of a synthetic substrate (SHP2): neither D3 nor D4 (100 nM) blocks SHP2 dephosphorylation | SHP2 activity in vitro (SHP2; concentration not given, listed as D3): does not activate SHP2; also recorded: does not alter SHP2 activity | PTP1B-FAK interaction (PTP1B-FAK interaction): does not change FAK-PTPB association; also recorded: does not inhibit PTP1B-FAK interaction | Pyk2 activation (Pyk2 (also called FAK2)): does not activate Pyk2 or Src; also recorded: does not affect the kinase Pyk2 | Src activation (Src): does not activate Pyk2 or Src; also recorded: does not affect | % wound closure between day 1 and day 4 (ileal ulcer; 900 ug/kg IP every 6 hours): markedly higher; also recorded: stimulates ulcer healing | ileal ulcer area (ileal ulcer; day 4, 900 ug/kg IP every 6 hours for 3 days): substantially smaller ulcers; also recorded: reduces ileal ulcer area; also recorded: ulcers appear smaller | total small bowel ulcer area (small bowel ulcer): substantial and statistically significant reduction in ulcer area; also recorded: markedly decreases total small bowel ulcer area | ALT ([1]; remained within the normal range): slight elevation of ALT | Histological evaluation of kidneys or livers ([1]; vs vehicle): no differences | Serum creatinine ([1]; vs vehicle): not different | postoperative body weight ([1]; vs vehicle): did not display further weight loss | body weight [2]: lost less weight
